Experimental data published in BindingDB's records for patent US20250250264 (Wuhan Humanwell Innovative Drug Research And Development …, 2025).

Molecular target: T1, Kinesin-like protein KIF18A [1-467] (Human, UniProt Q8NI77)
T1 construct: 1-467
T1 sequence (Q8NI77 whole entry): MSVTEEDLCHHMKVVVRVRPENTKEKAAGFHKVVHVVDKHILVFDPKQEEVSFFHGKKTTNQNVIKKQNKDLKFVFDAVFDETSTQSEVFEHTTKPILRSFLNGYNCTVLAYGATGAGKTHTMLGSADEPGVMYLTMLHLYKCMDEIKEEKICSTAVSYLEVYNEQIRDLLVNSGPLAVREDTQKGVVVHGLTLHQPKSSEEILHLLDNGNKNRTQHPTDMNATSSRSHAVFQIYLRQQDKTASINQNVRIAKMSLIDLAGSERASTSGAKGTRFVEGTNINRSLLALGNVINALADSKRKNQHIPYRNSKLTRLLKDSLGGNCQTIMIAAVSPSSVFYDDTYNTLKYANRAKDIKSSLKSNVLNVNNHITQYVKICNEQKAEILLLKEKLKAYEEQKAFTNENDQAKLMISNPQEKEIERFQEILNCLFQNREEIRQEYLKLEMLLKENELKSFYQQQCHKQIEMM
Test: Assay on Inhibition of KIF18A Enzymatic Activity
Description: The reaction system consisted of a test compound, the recombinant protein KIF18A (aa 1-467), ATP (Promega Inc), and an assay buffer. The test compound was prepared into a 0.5 mM stock solution using DMSO (Sigma Inc) and then serially diluted in DMSO. The assay buffer consisted of an aqueous solution of 15 mM Tris, 10 mM MgCl2 (Sigma Inc), 0.01% Pluronic F-68 (Life Technologies Inc), 1 μM paclitaxel (Cytoskeleton Inc), 30 μg/mL porcine tubulin (Cytoskeleton Inc), and 2% DMSO. The KIF18A protein (final concentration: 80 nM) and the compound at different concentrations (1 μL) were added to the prepared assay buffer (50 μL), and the mixture was incubated at room temperature for 15 min. Then, ATP (final concentration: 80 μM) was added to the reaction mixture, and the resulting mixture was incubated at room temperature for 3 h. After the reaction was completed, 5 μL of the ADP-Glo™ reagent and 2.5 μL of the reaction mixture were added to a 384-well plate (Grenier Inc). The resulting mixture was mixed homogeneously, then sealed by an aluminum foil sealing film, and incubated at room temperature in the dark for 40 min. […] After all reactions were completed, the luminescence values of the wells were read on a microplate reader (Molecular Device_SpectraMax Id5), and the inhibition ratios were calculated.

Row | IC50 [nM] | SMILES
1 | 3 | Cc1cc(-c2nnc(-c3ccc(NS(=O)(=O)CCO)cc3N3CCC4(CC3)CC4)s2)nc(OCCC(F)(F)F)n1 [US20250250264, Compound I-99]
2 | 25 | Cc1cc(-c2nnc(-c3ccc(NS(=O)(=O)CCO)cc3N3CCC4(CC3)CC4)o2)c(F)c(N2CCC(F)(F)CC2)n1 [US20250250264, Compound I-53]
